Columns and labels:
[1] = biological target: CYP3A4 (Homo sapiens, UniProt P08684); test: Midazolam 1'-hydroxylation; format: in vitro ADME; conditions: for % inhibition (10 µM) of CYP3A4, class / % inhibition (10 µM) of CYP3A4 / IC50: midazolam hydroxylation; for % inhibition (10 µM) of CYP3A4: average of triplicates ± S.D.; for IC50: read-out: IC50 CYP3A4
[2] = biological target: CYP2D6 (Homo sapiens, UniProt P10635); test: Dextromethorphan demethylation; format: in vitro ADME
[3] = system: CYP3A4; conditions: cited from earlier work
[4] = system: tamoxifen α-hydroxylation (α-OH TAM formation) by human liver microsomes; test: in vitro; conditions: female, pH 7.4
[5] = system: tamoxifen N-demethylation (N-desmethyl TAM formation) by human liver microsomes; test: in vitro; conditions: female, pH 7.4
[6] = system: tamoxifen 4-hydroxylation (4-OH TAM formation) by human liver microsomes; test: in vitro; conditions: female, pH 7.4

CYP2D6, sequence (P10635 whole entry): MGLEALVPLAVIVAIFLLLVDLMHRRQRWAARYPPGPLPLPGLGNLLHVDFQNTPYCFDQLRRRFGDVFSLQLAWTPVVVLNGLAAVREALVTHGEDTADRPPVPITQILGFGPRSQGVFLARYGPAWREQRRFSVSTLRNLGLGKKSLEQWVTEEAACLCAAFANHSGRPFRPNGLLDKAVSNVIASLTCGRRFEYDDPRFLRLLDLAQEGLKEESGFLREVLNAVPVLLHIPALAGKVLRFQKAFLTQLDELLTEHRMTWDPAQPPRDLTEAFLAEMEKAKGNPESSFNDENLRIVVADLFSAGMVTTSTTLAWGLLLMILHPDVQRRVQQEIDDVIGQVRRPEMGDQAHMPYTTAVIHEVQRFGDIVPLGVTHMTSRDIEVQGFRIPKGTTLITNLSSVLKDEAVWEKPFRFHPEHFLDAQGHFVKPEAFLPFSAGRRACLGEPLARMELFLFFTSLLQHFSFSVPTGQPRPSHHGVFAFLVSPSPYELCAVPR
CYP3A4 (Homo sapiens, UniProt P08684), sequence (P08684 whole entry): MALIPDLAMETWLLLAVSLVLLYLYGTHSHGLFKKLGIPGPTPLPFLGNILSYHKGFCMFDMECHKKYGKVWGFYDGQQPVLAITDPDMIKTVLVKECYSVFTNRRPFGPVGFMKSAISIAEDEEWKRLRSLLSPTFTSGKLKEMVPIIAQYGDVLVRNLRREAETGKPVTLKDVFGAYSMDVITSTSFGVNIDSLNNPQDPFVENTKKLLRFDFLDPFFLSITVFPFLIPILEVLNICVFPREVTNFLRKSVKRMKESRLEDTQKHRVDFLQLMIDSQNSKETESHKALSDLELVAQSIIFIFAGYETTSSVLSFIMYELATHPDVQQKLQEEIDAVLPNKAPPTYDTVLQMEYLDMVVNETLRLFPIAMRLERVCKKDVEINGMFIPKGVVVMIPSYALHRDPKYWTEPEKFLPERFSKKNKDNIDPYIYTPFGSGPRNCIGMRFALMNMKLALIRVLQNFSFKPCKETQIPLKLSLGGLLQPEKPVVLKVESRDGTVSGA

CC(=O)O[C@H]1[C@H](O[C@H]2CC[C@]34C[C@]35C[C@@H](OC(C)=O)[C@]3(C)[C@H]6[C@H](C)C[C@@]7(O[C@H]6C[C@@]3(C)[C@@H]5CC[C@H]4C2(C)C)O[C@H](O)[C@@]2(C)O[C@@H]72)OC[C@@H](O)[C@@H]1O [Compound 14, 2’-O-acetyl-Actein]
% inhibition (10 µM) of CYP3A4, class [1]: N/A (N/A, Not active = < 50% inhibition at 10 µM)

CN1CCc2cc3c(cc2C(=O)Cc2ccc4c(c2C1)OCO4)OCO3 [Protopine, protopine]
Ki [2]: 0.078 µM

C=C(C)[C@@H]1O[C@@]23O[C@@H]1C[C@@H](C)[C@@H]2[C@@]1(C)[C@H](OC(C)=O)C[C@@]24C[C@@]25CC[C@H](O[C@@H]2OC[C@@H](O)[C@H](O)[C@H]2O)C(C)(C)[C@@H]5CC[C@H]4[C@]1(C)[C@H]3O [Compound 7, Cimiracemoside K]
% inhibition (10 µM) of CYP3A4 [1]: 85.2±0.3% | IC50 [1]: 3.8 ± 0.5 µM

25-anhydrocimigenol-3-O-β-arabinopyranoside [Compound 10]
% inhibition (10 µM) of CYP3A4, class [1]: N/A (N/A, Not active = < 50% inhibition at 10 µM)

25-O-acetylcimigenol-3-O-β-xylopyranoside [Compound 8]
% inhibition (10 µM) of CYP3A4, class [1]: N/A (N/A, Not active = < 50% inhibition at 10 µM)

25-O-acetylcimigenol-3-O-α-arabinopyranoside [Compound 9]
% inhibition (10 µM) of CYP3A4, class [1]: N/A (N/A, Not active = < 50% inhibition at 10 µM)

23-O-acetylshengmanol-3-β-D-xylopyranoside [Compound 12]
CYP3A4 inhibition (in words) [3]: weak inhibitor

1-α-hydroxycimigenol-3-O- α-L-arabinopyranoside [Compound 19]
% inhibition (10 µM) of CYP3A4, class [1]: N/A (N/A, Not active = < 50% inhibition at 10 µM)

CC(=O)O[C@@H]1C[C@@]23C[C@@]24CC[C@H](O[C@@H]2OC[C@@H](O)[C@H](O)[C@H]2O)C(C)(C)[C@@H]4CC[C@H]3[C@]2(C)C[C@@H]3O[C@]4(C[C@@H](C)[C@@H]3[C@@]12C)OC(=O)[C@]1(C)O[C@H]41 [Compound 5, Cimiracemoside P]
% inhibition (10 µM) of CYP3A4, class [1]: N/A (N/A, Not active = < 50% inhibition at 10 µM)

COc1ccc2c(c1OC)CN(C)CCc1cc3c(cc1C(=O)C2)OCO3 [Allocryptopine, allocryptopine]
inhibition at 20 min, 10 µM [4]: < 10% | inhibition at 20 min, 10 µM [5]: 16.8 ± 2.8% | inhibition at 20 min, 10 µM [6]: 57.9 ± 4.3%

C[C@H](CC(=O)[C@@H]1OC1(C)C)[C@H]1C(=O)C[C@@]2(C)C3=CC[C@H]4C(C)(C)[C@@H](O[C@@H]5OC[C@@H](O)[C@H](O)[C@H]5O)CC[C@@]45C[C@@]35[C@@H](O)C[C@]12C [Compound 17, Cimicifugoside H-1]
% inhibition (10 µM) of CYP3A4, class [1]: N/A (N/A, Not active = < 50% inhibition at 10 µM)

C=C(C)[C@@H]1O[C@@]23O[C@@H]1C[C@@H](C)[C@@H]2[C@@]1(C)[C@H](OC(C)=O)C[C@@]24C[C@@]25CC[C@H](O[C@@H]2OC[C@H](O)[C@H](O)[C@H]2O)C(C)(C)[C@@H]5CC[C@H]4[C@]1(C)[C@H]3O [Compound 6, Cimiracemoside J]
% inhibition (10 µM) of CYP3A4, class [1]: N/A (N/A, Not active = < 50% inhibition at 10 µM)

7-β-hydroxycimigenol aglycone [Compound 20]
% inhibition (10 µM) of CYP3A4 [1]: 64.9±1.1%

25-anhydrocimigenol-3-O-β-xylopyranoside [Compound 3]
% inhibition (10 µM) of CYP3A4, class [1]: N/A (N/A, Not active = < 50% inhibition at 10 µM)

CC(=O)O[C@@H]1C[C@@]23C[C@@]24CC[C@H](O[C@@H]2OC[C@@H](O)[C@H](O)[C@H]2O)C(C)(C)[C@@H]4CC[C@H]3[C@]2(C)C[C@@H]3O[C@]4(C[C@@H](C)[C@@H]3[C@@]12C)OC[C@@]1(C)O[C@@H]41 [Compound 4, 26-deoxyactein]
activity against CYP3A4 (in words) [1]: inactive | % inhibition (10 µM) of CYP3A4, class [1]: N/A (N/A, Not active = < 50% inhibition at 10 µM) | activity against CYP2D6 (in words) [2]: inactive

CC(=O)O[C@@H]1CO[C@@H](O[C@H]2CC[C@]34C[C@]35C[C@@H](OC(C)=O)[C@]3(C)[C@H]6[C@H](C)C[C@]7(OC(O)[C@]8(C)O[C@H]78)O[C@H]6C[C@@]3(C)[C@@H]5CC[C@H]4C2(C)C)[C@H](O)[C@H]1O (stereo partly drawn) [Compound 15, Cimiracemoside O]
% inhibition (10 µM) of CYP3A4 [1]: 74.8±0.1% | IC50 [1]: 5.1 ± 0.4 µM

25-O-acetyl-7-β-hydroxycimigenol-3-O-β-xylopyranoside [Compound 22]
% inhibition (10 µM) of CYP3A4 [1]: 61.8±0.2%

CC(=O)O[C@@H]1C[C@@]23C[C@@]24CC[C@H](O[C@@H]2OC[C@H](O)[C@H](O)[C@H]2O)C(C)(C)[C@@H]4CC[C@H]3[C@]2(C)C[C@@H]3O[C@]4(C[C@@H](C)[C@@H]3[C@@]12C)OC[C@]1(C)O[C@H]41 [Compound 13, Cimiracemoside N]
% inhibition (10 µM) of CYP3A4, class [1]: N/A (N/A, Not active = < 50% inhibition at 10 µM)

1-α-hydroxycimigenol-3-O-β-D-xylopyranoside [Compound 21]
% inhibition (10 µM) of CYP3A4, class [1]: N/A (N/A, Not active = < 50% inhibition at 10 µM)

CC(=O)O[C@@H]1C[C@@]23C[C@@]24CC[C@H](O[C@@H]2OC[C@@H](O)[C@H](O)[C@H]2O)C(C)(C)[C@@H]4CC[C@H]3[C@]2(C)C[C@@H]3O[C@]4(C[C@@H](C)[C@@H]3[C@@]12C)O[C@H](O)[C@@]1(C)O[C@@H]41 [Compound 11, Actein (R,S)]
activity against CYP3A4 (in words) [1]: inactive | % inhibition (10 µM) of CYP3A4, class [1]: N/A (N/A, Not active = < 50% inhibition at 10 µM) | activity against CYP2D6 (in words) [2]: inactive

CC(=O)O[C@H]1CO[C@@H](O[C@H]2CC[C@]34C[C@]35CC[C@]3(C)[C@@H]([C@H](C)C[C@@H](OC(C)=O)[C@@H]6OC6(C)C)C(=O)[C@H](O)[C@@]3(C)[C@@H]5CC[C@H]4C2(C)C)[C@H](O)[C@H]1O [Compound 16, Cimiracemoside L]
% inhibition (10 µM) of CYP3A4 [1]: 94.2±0.3% | IC50 [1]: 2.4 ± 0.2 µM

CC(=O)O[C@@H]1C[C@@]23C[C@@]24CC[C@H](O[C@@H]2OC[C@@H](O)[C@H](O)[C@H]2O)C(C)(C)[C@@H]4CC[C@H]3[C@]2(C)C[C@@H]3O[C@@]4(C[C@@H](C)[C@@H]3[C@@]12C)OC[C@@]1(C)O[C@@H]41 [Compound 1, 23-epi-26-deoxyactein]
activity against CYP3A4 (in words) [1]: inactive | activity against CYP2D6 (in words) [2]: inactive
